The NIST ThermoML archive (doi:10.1021/acs.jced.6b00430)

Experiment: xn = mol fraction of the nth substance listed
Conditions: 100 kPa, Liquid; for electrical conductivity: Alternating current cell with electrodes; for viscosity: Concentric cylinders viscometry; for mass density: Vibrating tube method

O=[PH](O)O [phosphonic acid] + CN(C)C=O
Conditions	electrical conductivity [S/m]	mass density [kg/m3]	viscosity [mPa·s]
298.15 K, x1 = 0.0911	–	992.53	–
298.15 K, x1 = 0.1181	0.0572	–	–
298.15 K, x1 = 0.1365	–	1016.46	–
298.15 K, x1 = 0.1798	–	1040.55	–
298.15 K, x1 = 0.1829	–	1041.85	–
298.15 K, x1 = 0.1973	–	–	2.92
298.15 K, x1 = 0.2293	–	1069.29	–
298.15 K, x1 = 0.2507	–	–	4.75
298.15 K, x1 = 0.291	–	1104.79	–
298.15 K, x1 = 0.2984	0.0925	–	7.07
298.15 K, x1 = 0.3115	–	–	7.88
298.15 K, x1 = 0.3298	0.0934	1129.74	–
298.15 K, x1 = 0.3442	–	1137.78	–
298.15 K, x1 = 0.3491	–	–	11.5
298.15 K, x1 = 0.3712	–	1154.77	–
298.15 K, x1 = 0.3937	–	1169.25	–
298.15 K, x1 = 0.3968	0.129	–	17.6
298.15 K, x1 = 0.3988	–	–	17.8
298.15 K, x1 = 0.4107	–	1182.13	20.7
298.15 K, x1 = 0.421	–	1188.34	–
298.15 K, x1 = 0.4479	0.141	1207.13	28.7
298.15 K, x1 = 0.4707	–	1221.83	–
298.15 K, x1 = 0.493	–	1235.89	–
298.15 K, x1 = 0.4968	–	–	41.6
298.15 K, x1 = 0.5074	–	1244.77	43.9
298.15 K, x1 = 0.5196	–	1255.1	–
298.15 K, x1 = 0.5429	–	1270.6	–
298.15 K, x1 = 0.5503	–	–	62.4
298.15 K, x1 = 0.5724	–	1292.1	–
298.15 K, x1 = 0.5761	0.216	–	73.5
298.15 K, x1 = 0.5925	–	1306.05	–
298.15 K, x1 = 0.5993	–	–	80.5
298.15 K, x1 = 0.6245	–	1328.62	–
298.15 K, x1 = 0.6261	–	–	90
298.15 K, x1 = 0.6316	0.294	–	95.2
298.15 K, x1 = 0.6478	–	–	102.8
298.15 K, x1 = 0.6554	0.333	1355.76	103.3
298.15 K, x1 = 0.6753	–	1364.54	–
298.15 K, x1 = 0.682	0.411	–	113.5
298.15 K, x1 = 0.6923	–	1378.85	–
298.15 K, x1 = 0.7142	–	1399.02	122.7
298.15 K, x1 = 0.725	–	1401.52	–
298.15 K, x1 = 0.7592	–	1432.85	–
298.15 K, x1 = 0.7694	0.663	1444	139.8
298.15 K, x1 = 0.7832	0.702	–	142.5
298.15 K, x1 = 0.7845	–	1450.65	–
308.15 K, x1 = 0.0911	–	983.17	–
308.15 K, x1 = 0.1181	0.0647	–	–
308.15 K, x1 = 0.1365	–	1007.16	–
308.15 K, x1 = 0.1798	–	1031.35	–
308.15 K, x1 = 0.1829	–	1032.63	–
308.15 K, x1 = 0.1973	–	–	2.49
308.15 K, x1 = 0.2293	–	1060.16	–
308.15 K, x1 = 0.2507	–	–	3.92
308.15 K, x1 = 0.291	–	1095.72	–
308.15 K, x1 = 0.2984	0.116	–	5.72
308.15 K, x1 = 0.3115	–	–	6.3
308.15 K, x1 = 0.3298	0.119	1120.73	–
308.15 K, x1 = 0.3442	–	1128.83	–
308.15 K, x1 = 0.3491	–	–	9.06
308.15 K, x1 = 0.3712	–	1145.98	–
308.15 K, x1 = 0.3937	–	1160.41	–
308.15 K, x1 = 0.3968	0.169	–	13.3
308.15 K, x1 = 0.3988	–	–	14
308.15 K, x1 = 0.4107	–	1173.31	15.4
308.15 K, x1 = 0.421	–	1179.34	–
308.15 K, x1 = 0.4479	0.19	1198.35	20.9
308.15 K, x1 = 0.4707	–	1213.06	–
308.15 K, x1 = 0.493	–	1227.23	–
308.15 K, x1 = 0.4968	–	–	29.2
308.15 K, x1 = 0.5074	–	1236.13	30.3
308.15 K, x1 = 0.5196	–	1246.49	–
308.15 K, x1 = 0.5429	–	1262.02	–
308.15 K, x1 = 0.5503	–	–	42.4
308.15 K, x1 = 0.5724	–	1283.54	–
308.15 K, x1 = 0.5761	0.301	–	48.6
308.15 K, x1 = 0.5925	–	1297.57	–
308.15 K, x1 = 0.5993	–	–	51
308.15 K, x1 = 0.6245	–	1320.2	–
308.15 K, x1 = 0.6261	–	–	59.4
308.15 K, x1 = 0.6316	0.41	–	61.2
308.15 K, x1 = 0.6478	–	–	64.5
308.15 K, x1 = 0.6554	0.476	1347.39	66.1
308.15 K, x1 = 0.6753	–	1356.23	–
308.15 K, x1 = 0.682	0.589	–	72.4
308.15 K, x1 = 0.6923	–	1370.56	–
308.15 K, x1 = 0.7142	–	1390.77	78.3
308.15 K, x1 = 0.725	–	1393.35	–
308.15 K, x1 = 0.7592	–	1424.69	–
308.15 K, x1 = 0.7694	0.959	1435.87	87.4
308.15 K, x1 = 0.7832	1.02	–	88.2
308.15 K, x1 = 0.7845	–	1442.56	–
318.15 K, x1 = 0.0911	–	973.7	–
318.15 K, x1 = 0.1181	0.0725	–	–
318.15 K, x1 = 0.1365	–	997.83	–
318.15 K, x1 = 0.1798	–	1022.15	–
318.15 K, x1 = 0.1829	–	1023.41	–
318.15 K, x1 = 0.1973	–	–	2.16
318.15 K, x1 = 0.2293	–	1051.04	–
318.15 K, x1 = 0.2507	–	–	3.35
318.15 K, x1 = 0.291	–	1086.67	–
318.15 K, x1 = 0.2984	0.142	–	4.77
318.15 K, x1 = 0.3115	–	–	5.21
318.15 K, x1 = 0.3298	0.148	1111.75	–
318.15 K, x1 = 0.3442	–	1119.89	–
318.15 K, x1 = 0.3491	–	–	7.26
318.15 K, x1 = 0.3712	–	1137.21	–
318.15 K, x1 = 0.3937	–	1151.58	–
318.15 K, x1 = 0.3968	0.217	–	10.5
318.15 K, x1 = 0.3988	–	–	10.6
318.15 K, x1 = 0.4107	–	1164.51	12
318.15 K, x1 = 0.4479	0.25	–	15.8
318.15 K, x1 = 0.4968	–	–	21.2
318.15 K, x1 = 0.5074	–	–	22.2
318.15 K, x1 = 0.5503	–	–	30
318.15 K, x1 = 0.5761	0.397	–	34.1
318.15 K, x1 = 0.5993	–	–	35.2
318.15 K, x1 = 0.6261	–	–	41.2
318.15 K, x1 = 0.6316	0.548	–	42
318.15 K, x1 = 0.6478	–	–	43.6
318.15 K, x1 = 0.6554	0.626	–	45
318.15 K, x1 = 0.682	0.81	–	49
318.15 K, x1 = 0.7142	–	–	51.4
318.15 K, x1 = 0.7694	1.33	–	57.3
318.15 K, x1 = 0.7832	1.41	–	58.4
